Measured values published in US20090076044A1, “VEGFR INHIBITORS CONTAINING A ZINC BINDING MOIETY” (priority 2007, published 2009).

How the values were obtained:
Type in all cases: biochemical
[1] = test system: HDAC; assay: HDAC fluorimetric assay kit (HeLa nuclear extract)
Procedure: (b) An In Vitro Assay which Determines the Ability of a Test Compound to Inhibit HDAC Enzymatic Activity.
HDAC inhibitors were screened using an HDAC fluorimetric assay kit (AK-500, Biomol, Plymouth Meeting, Pa.). Test compounds were dissolved in dimethylsulphoxide (DMSO) to give a 20 mM working stock concentration. Fluorescence was measured on a WALLAC Victor 2 plate reader and reported as relative fluorescence units (RFU). Data were plotted using GraphPad Prism (v4.0a) and IC50's calculated using a sigmoidal dose response curve fitting algorithm. Each assay was setup as follows: Defrosted all kit components and kept on ice until use. Diluted HeLa nuclear extract 1:29 in Assay Buffer (50 mM Tris/Cl, pH 8.0, 137 mM NaCl, 2.7 mM KCl, 1 mM MgCl2). Prepared dilutions of Trichostatin A (TSA, positive control) and tested compounds in assay buffer (5× of final concentration). Diluted Fluor de Lys™ Substrate in assay buffer to 100 uM (50 fold=2× final). Diluted Fluor de Lys™ developer concentrate 20-fold (e.g. 50 μl plus 950 μl Assay Buffer) in cold assay buffer. Second, diluted the 0.2 mM Trichostatin A 100-fold in the 1× Developer (e.g. 10 μl in 1 ml; final Trichostatin A concentration in the 1× Developer=2 μM; final concentration after addition to HDAC/Substrate reaction=1 μM). Added Assay buffer, diluted trichostatin A or test inhibitor to appropriate wells of the microtiter plate. Added diluted HeLa extract or other HDAC sample to all wells except for negative controls. Allowed diluted Fluor de Lys™ Substrate and the samples in the microtiter plate to equilibrate to assay temperature (e.g. 25 or 37° C. Initiated HDAC reactions by adding diluted substrate (25 μl) to each well and mixing thoroughly. Allowed HDAC reactions to proceed for 1 hour and then stopped them by addition of Fluor de Lys™ Developer (50 μl). Incubated plate at room temperature (25° C.) for 10-15 min. Read samples in a microtiter-plate reading fluorimeter capable of excitation at a wavelength in the range 350-380 nm and detection of emitted light in the range 440-460 nm.

[2] = biological target: T1, human VEGFR2 (Homo sapiens, UniProt P35968); assay: VEGFR2/KDR radioisotope kinase assay; settings: 100 μM ATP; read-out: VEGFR2 IC50
T1 construct: kinase domain (amino acids 790 to end) fragment; 6xHis (N); made in house; host or cells: Sf21 insect cells (baculovirus)
Procedure: (a) An In Vitro Assay which-Determines the Ability of a Test Compound to Inhibit a Receptor Tyrosine Kinase.
The ability of compounds to inhibit receptor kinase (VEGFR2 and PDGFR-beta) activity was assayed using standard radioisotope assay for kinase. […] The proteins were purified using Ni2+/NTA agarose affinity column to purity
>85% as determined by coomassie blue-stained SDS-PAGE gel. For VEGFR2/KDR assay, p33 ATP tracers were incubated with purified recombinant VEGFR2 kinase to monitor the enzyme activity. In this assay, reactions were carried out in the presence of 0.1 mg/ml VEGFR2 kinase and 0.33 mg/ml myelin basic protein. The reaction was carried out at 30° C. for 120 minutes in a final assay condition contained 50 mM Tris-HCl, pH 7.5, 300 mM NaCl, 0.1 mM EGTA, 0.03% Brij 35, 270 mM sucrose, 1 mM benzamidine, 0.2 mM PMSF, 0.1% 2-mercaptoethanol and 100 μM ATP. An equal volume of 25% TCA was added to stop the reaction and precipitate the labeled proteins. Precipitated proteins were trapped onto glass fiber B filterplates and excess unlabeled p33 ATP was washed off. The plates were allowed to air-dry prior to the addition of 30 uL/well of Packard Microscint 20. The amount of incorporated isotope was measured using a Perkin Elmer TopCount plate reader. Different concentrations of compounds were added to reaction to assess the activity of compounds to inhibit VEGFR2 kinase. IC50 was calculated using Prism software with sigmoidal dose-response curve fitting.

[3] = biological target: T2, human EGFR (Homo sapiens, UniProt P00533); assay: EGFR kinase assay (HTScan EGF Receptor Kinase Assay Kit, DELFIA); settings: 200 μM ATP
T2 construct: human EGFR (His672-Ala1210); purchased Cell Signaling Technologies; host or cells: baculovirus expression system
Procedure: (e) An In Vitro Assay which Determines the Ability of a Test Compound to Inhibit EGFR Kinase.
The ability of compounds to inhibit receptor kinase (EGFR) activity was assayed using HTScan™ EGF Receptor Kinase Assay Kits (Cell Signaling Technologies, Danvers, Mass.). EGFR tyrosine kinase was obtained as GST-kinase fusion protein which was produced using a baculovirus expression system with a construct expressing human EGFR (His672-Ala1210) (GenBank Accession No. NM_005228) with an amino-terminal GST tag. The protein was purified by one-step affinity chromatography using glutathione-agarose. An anti-phosphotyrosine monoclonal antibody, P-Tyr-100, was used to detect phosphorylation of biotinylated substrate peptides (EGFR), Biotin-PTP1B (Tyr66). Enzymatic activity was tested in 60 mM HEPES, 5 mM MgCl2 5 mM MnCl2 200 μM ATP, 1.25 mM DTT, 3 μM Na3VO4, 1.5 mM peptide, and 50 ng EGF Receptor Kinase. Bound antibody was detected using the DELFIA system (PerkinElmer, Wellesley, Mass.) consisting of DELFIA® Europium-labeled Anti-mouse IgG (PerkinElmer, #AD0124), DELFIA® Enhancement Solution (PerkinElmer, #1244-105), and a DELFIA® Streptavidin coated, 96-well Plate (PerkinElmer, AAAND-0005). Fluorescence was measured on a WALLAC Victor 2 plate reader and reported as relative fluorescence units (RFU). Data were plotted using GraphPad Prism (v4.0a) and IC50's calculated using a sigmoidal dose response curve fitting algorithm.
Test compounds were dissolved in dimethylsulfoxide (DMSO) to give a 20 mM working stock concentration. Each assay was setup as follows: Added 100 μl of 10 mM ATP to 1.25 ml 6 mM substrate peptide. Diluted the mixture with dH2O to 2.5 ml to make 2×ATP/substrate cocktail ([ATP]=[…], [substrate]=3 mM). Immediately transfer enzyme from −80° C. to ice. Allowed enzyme to thaw on ice. Microcentrifuged briefly at 4° C. to bring liquid to the bottom of the vial. Returned immediately to ice. Added 10 μl of DTT (1.25 mM) to 2.5 ml of 4× HTScan™ Tyrosine Kinase Buffer (240 mM HEPES pH 7.5, 20 mM MgCl2, 20 mM MnCl, 12 mM NaVO3) to make DTT/Kinase buffer. Transfer 1.25 ml of DTT/Kinase buffer to enzyme tube to make 4× reaction cocktail ([enzyme]=4 ng/μL in 4× reaction cocktail). Incubated 12.5 μl of the 4× reaction cocktail with 12.5 μl/well of prediluted compound of interest (usually around 10 μM) for 5 minutes at room temperature. Added 25 μl of 2×ATP/substrate cocktail to 25 μl/well preincubated reaction cocktail/compound. Incubated reaction plate at room temperature for 30 minutes. Added 50 μl/well Stop Buffer (50 mM EDTA, pH 8) to stop the reaction. Transferred 25 μl of each reaction and 75 μl dH2O/well to a 96-well streptavidin-coated plate and incubated at room temperature for 60 minutes. Washed three times with 200 μl/well PBS/T (PBS, 0.05% Tween-20). Diluted primary antibody, Phospho-Tyrosine mAb (P-Tyr-100), 1:1000 in PBS/T with 1% bovine serum albumin (BSA). Added 100 μl/well primary antibody. Incubated at room temperature for 60 minutes. Washed three times with 200 μl/well PBS/T. Diluted Europium labeled anti-mouse IgG 1:500 in PBS/T with 1% BSA. Added 100 μl/well diluted antibody. Incubated at room temperature for 30 minutes. Washed five times with 200 μl/well PBS/T. Added 100 μl/well DELFIA® Enhancement Solution. Incubated at room temperature for 5 minutes. Detected 615 nm fluorescence emission with appropriate Time-Resolved Plate Reader.

T1 sequence (P35968 790-1356 limits assumed): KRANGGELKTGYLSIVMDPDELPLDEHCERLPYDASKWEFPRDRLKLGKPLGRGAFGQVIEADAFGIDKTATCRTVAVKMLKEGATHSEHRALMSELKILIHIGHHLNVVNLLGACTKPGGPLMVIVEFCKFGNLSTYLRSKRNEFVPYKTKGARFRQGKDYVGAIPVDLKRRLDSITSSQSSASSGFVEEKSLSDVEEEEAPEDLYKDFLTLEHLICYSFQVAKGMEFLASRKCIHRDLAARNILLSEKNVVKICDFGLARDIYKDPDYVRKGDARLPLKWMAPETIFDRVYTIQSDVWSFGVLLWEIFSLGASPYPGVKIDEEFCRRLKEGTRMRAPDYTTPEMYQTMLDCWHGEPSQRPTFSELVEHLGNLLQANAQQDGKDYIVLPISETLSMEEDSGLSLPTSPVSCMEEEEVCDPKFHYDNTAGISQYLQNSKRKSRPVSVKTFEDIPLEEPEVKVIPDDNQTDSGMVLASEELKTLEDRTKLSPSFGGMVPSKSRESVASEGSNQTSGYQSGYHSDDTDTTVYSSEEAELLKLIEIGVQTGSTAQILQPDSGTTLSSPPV
T2 sequence (P00533 672-1210): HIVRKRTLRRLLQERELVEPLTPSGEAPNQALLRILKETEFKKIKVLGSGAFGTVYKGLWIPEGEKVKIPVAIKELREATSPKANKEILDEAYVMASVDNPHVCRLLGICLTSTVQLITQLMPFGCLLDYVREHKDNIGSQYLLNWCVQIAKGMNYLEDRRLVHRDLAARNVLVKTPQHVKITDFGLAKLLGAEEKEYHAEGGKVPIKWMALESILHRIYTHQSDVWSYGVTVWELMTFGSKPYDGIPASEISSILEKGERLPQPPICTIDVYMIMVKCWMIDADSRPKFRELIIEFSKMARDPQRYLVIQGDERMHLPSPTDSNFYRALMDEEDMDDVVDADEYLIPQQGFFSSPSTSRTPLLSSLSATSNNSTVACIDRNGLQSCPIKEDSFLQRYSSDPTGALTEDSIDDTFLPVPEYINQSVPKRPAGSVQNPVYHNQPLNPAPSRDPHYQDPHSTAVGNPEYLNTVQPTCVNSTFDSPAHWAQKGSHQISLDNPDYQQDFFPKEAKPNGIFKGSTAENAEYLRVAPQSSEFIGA

IC50 [1] [µM]	IC50 [2] [µM]	IC50 [3] [µM]	Compound
< 0.1	1 to 10	–	COc1cc2c(Nc3ccc4occc4c3)ncnc2cc1OCCCCCCC(=O)NO [Compound 6, 7-(4-(benzofuran-5-ylamino)-6-methoxyquinazolin-7-yloxy)-N-hydroxyheptanamide]
0.1 to 1	–	–	COc1cc2c(Oc3ccc4[nH]c(C)cc4c3F)ncnc2cc1OCCCCC(=O)NO [Compound 9, 5-(4-(4-fluoro-2-methyl-1H-indol-5-yloxy)-6-methoxyquinazolin-7-yloxy)-N-hydroxypentanamide]
0.1 to 1	–	0.1 to 1	COc1cc2c(Nc3ccc4[nH]c(C)cc4c3F)ncnc2cc1OCCCCC(=O)NO [Compound 12, 5-(4-(4-fluoro-2-methyl-1H-indol-5-ylamino)-6-methoxyquinazolin-7-yloxy)-N-hydroxypentanamide]
